According to US20060039931A1, “Stable cream preparations of phenyl-pyridone compounds for topical application” (MEPHA AG, priority 2002, published 2006):

Assay: Experiments on use of pyridone compounds in emulsions
Assay type: physicochemical
Excerpt: When an emulsion “breaks”, the oily and aqueous phases separate, leading to unwanted coalescence, i.e. a kind of confluence or coagulation of the constituents. This often results in a change in pH and may even cause the active ingredient to crystallize out. This disadvantageous property of pirfenidone is not discussed in said patents and patent applications and no teaching is offered to remedy the problem. Creams are merely cited as a possible topical form of application.

Behaviour in emulsions: behave as emulsion breakers
SMILES: Cc1ccc(=O)n(-c2ccccc2)c1 [pirfenidone, 5-methyl-1-phenyl-2-(1H)-pyridone]
